# From US8445510B2, “Fused bicyclic kinase inhibitors” (OSI Pharmaceuticals, LLC, priority 2011, dated 2013)
# Experiments:
# [1] = biological target: T1, RON (Homo sapiens, UniProt Q04912); test: sfRON cell mechanistic assay (HeLa), phosphorylated RON ELISA; assay type: cell-based; details: HeLa cells transfected with sfRON; inhibition of phosphorylated RON; four hours incubation; at least duplicate experiments; read-out: sfRON mech IC50
# T1 sequence (Q04912 913-1400): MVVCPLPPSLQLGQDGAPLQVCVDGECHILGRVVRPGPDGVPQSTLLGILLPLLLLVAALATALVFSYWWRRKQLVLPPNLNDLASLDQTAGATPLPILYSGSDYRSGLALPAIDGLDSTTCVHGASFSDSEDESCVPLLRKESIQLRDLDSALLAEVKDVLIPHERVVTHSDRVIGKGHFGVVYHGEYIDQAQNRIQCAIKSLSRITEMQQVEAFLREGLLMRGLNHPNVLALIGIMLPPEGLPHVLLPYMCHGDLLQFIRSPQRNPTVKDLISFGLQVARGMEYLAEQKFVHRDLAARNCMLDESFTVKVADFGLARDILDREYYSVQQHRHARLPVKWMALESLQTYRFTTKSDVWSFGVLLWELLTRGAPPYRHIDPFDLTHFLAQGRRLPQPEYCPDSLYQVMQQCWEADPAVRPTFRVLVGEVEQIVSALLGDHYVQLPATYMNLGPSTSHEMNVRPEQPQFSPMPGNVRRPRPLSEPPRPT
# In short: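 HeLa cells transiently transfected with sfRON plasmid, then exposed 4 h at 37 °C to a 6-point compound series (typically 10 μM to 3 nM, 0.5% DMSO). Phospho-RON (pY1238/1239) in lysates measured by sandwich ELISA with luminescence. IC50 from 4-parameter fit of percent-of-DMSO-control data, at least duplicate runs.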
# [2] = tested on: Karpas-299 cells; test: Karpas-299 cell proliferation assay (CellTiter-Glo); assay type: cell-based; details: Homo sapiens, 72 h; Karpas-299 cell line (NPM-ALK); 3 days incubation; at least duplicate experiments; read-out: Prolif. IC50
Compound,IC50 [1] [nM],IC50 [2] [nM]
"Cc1c(-c2cnc3[nH]cc([C@H](C)c4c(O)ccc(F)c4Cl)c3c2)cnn1[C@H]1CC[C@H](O)CC1 [Example 102, 3-Chloro-4-fluoro-2-[(1S)-1-{5-[1-(trans-4-hydroxycyclohexyl)-5-methyl-1H-pyrazol-4-yl]-1H-pyrrolo[2,3-b]pyridin-3-yl}ethyl]phenol]",200 to 1000,50 to 200
"COc1ccc(F)c(Cl)c1[C@@H](C)c1c[nH]c2ncc(-c3cn(C)nc3Cl)cc12 [Example 60, 3-[(1S)-1-(2-chloro-3-fluoro-6-methoxyphenyl)ethyl]-5-(3-chloro-1-methyl-1H-pyrazol-4-yl)-1H-pyrrolo[2,3-b]pyridine]",> 1000,50 to 200
"COc1ccc(F)c(Cl)c1[C@@H](C)c1c[nH]c2ncc(-c3cn(C)nc3CN)cc12 [Example 50, 1-(4-{3-[(1S)-1-(2-Chloro-3-fluoro-6-methoxyphenyl)ethyl]-1H-pyrrolo[2,3-b]pyridin-5-yl}-1-methyl-1H-pyrazol-3-yl)methanamine]",> 1000,200 to 1000
"Cc1c(-c2cnc3[nH]cc([C@H](C)c4c(OC(C)C)ccc(F)c4Cl)c3c2)cnn1[C@H]1CC[C@H](O)CC1 [Example 104, trans-4-[4-(3-{(1S)-1-[2-Chloro-3-fluoro-6-(propan-2-yloxy)phenyl]ethyl}-1H-pyrrolo[2,3-b]pyridin-5-yl)-5-methyl-1H-pyrazol-1-yl]cyclohexanol]",200 to 1000,≤ 50
"CCc1nn(CC(C)(C)O)cc1-c1cnc2[nH]cc([C@H](C)c3c(OC)ccc(F)c3Cl)c2c1 [Example 12, 1-(4-{3-[(1S)-1-(2-Chloro-3-fluoro-6-methoxyphenyl)ethyl]-1H-pyrrolo[2,3-b]pyridin-5-yl}-3-ethyl-1H-pyrazol-1-yl)-2-methylpropan-2-ol]",200 to 1000,50 to 200
"COc1ccc(F)c(Cl)c1[C@@H](C)c1c[nH]c2ncc(-c3cnn([C@H]4CC[C@H](O)CC4)c3Cl)cc12 [Example 49, trans-4-(5-Chloro-4-{3-[(1S)-1-(2-chloro-3-fluoro-6-methoxyphenyl)ethyl]-1H-pyrrolo[2,3-b]pyridin-5-yl}-1H-pyrazol-1-yl)cyclohexanol]",> 1000,50 to 200
"COc1ccc(F)c(Cl)c1[C@@H](C)c1c[nH]c2ncc(-c3c(C)nn(C)c3C(N)=O)cc12 [Example 41, 4-{3-[(1S)-1-(2-Chloro-3-fluoro-6-methoxyphenyl)ethyl]-1H-pyrrolo[2,3-b]pyridin-5-yl}-1,3-dimethyl-1H-pyrazole-5-carboxamide]",> 1000,> 1000
"COc1ccc(F)c(Cl)c1[C@@H](C)c1c[nH]c2ncc(-c3c(C)nn(C)c3CO)cc12 [Example 45, (4-{3-[(1S)-1-(2-Chloro-3-fluoro-6-methoxyphenyl)ethyl]-1H-pyrrolo[2,3-b]pyridin-5-yl}-1,3-dimethyl-1H-pyrazol-5-yl)methanol]",> 1000,50 to 200
"COc1ccc(F)c(Cl)c1[C@@H](C)c1c[nH]c2ncc(-c3c(C)nn(C)c3Cl)cc12 [Example 63, 5-(5-Chloro-1,3-dimethyl-1H-pyrazol-4-yl)-3-[(1S)-1-(2-chloro-3-fluoro-6-methoxyphenyl)ethyl]-1H-pyrrolo[2,3-b]pyridine]",> 1000,200 to 1000
"COc1ccc(F)c(Cl)c1[C@@H](C)c1c[nH]c2ncc(-c3cnn(C)c3N)cc12 [Example 38, 4-{3-[(1S)-1-(2-Chloro-3-fluoro-6-methoxyphenyl)ethyl]-1H-pyrrolo[2,3-b]pyridin-5-yl}-1-methyl-1H-pyrazol-5-amine]",200 to 1000,50 to 200
"COc1ccc(F)c(Cl)c1[C@@H](C)c1c[nH]c2ncc(-c3cnn(C[C@@H](O)CO)c3C(F)(F)F)cc12 [Example 35, (2R)-3-[4-{3-[(1S)-1-(2-Chloro-3-fluoro-6-methoxyphenyl)ethyl]-1H-pyrrolo[2,3-b]pyridin-5-yl}-5-(trifluoromethyl)-1H-pyrazol-1-yl]propane-1,2-diol]",> 1000,200 to 1000
"Cc1c(-c2cnc3[nH]cc(C(C#N)c4c(Cl)ccc(F)c4Cl)c3c2)cnn1[C@H]1CC[C@H](O)CC1 (stereo partly drawn) [Example 108, (2,6-Dichloro-3-fluorophenyl){5-[1-(trans-4-hydroxycyclohexyl)-5-methyl-1H-pyrazol-4-yl]-1H-pyrrolo[2,3-b]pyridin-3-yl}acetonitrile]",> 1000,200 to 1000
"COc1ccc(F)c(Cl)c1[C@@H](C)c1c[nH]c2ncc(-c3c(C)nn([C@H]4CC[C@H](O)CC4)c3C)cc12 [Example 6, trans-4-(4-{3-[(1S)-1-(2-Chloro-3-fluoro-6-methoxyphenyl)ethyl]-1H-pyrrolo[2,3-b]pyridin-5-yl}-3,5-dimethyl-1H-pyrazol-1-yl)cyclohexanol]",200 to 1000,≤ 50

# Second part, the molecule after the results:
IC50 [1] [nM],IC50 [2] [nM],Compound
200 to 1000,≤ 50,"Cc1c(-c2cnc3[nH]cc([C@H](C)c4c(OC(F)F)ccc(F)c4Cl)c3c2)cnn1[C@H]1C[C@@H](O)C1 [Example 81, cis-3-[4-(3-{(1S)-1-[2-Chloro-6-(difluoromethoxy)-3-fluorophenyl]ethyl}-1H-pyrrolo[2,3-b]pyridin-5-yl)-5-methyl-1H-pyrazol-1-yl]cyclobutanol]"
200 to 1000,≤ 50,"[2H]C([2H])([2H])[C@H](c1c(OC)ccc(F)c1Cl)c1c[nH]c2ncc(-c3cnn([C@H]4CC[C@H](O)CC4)c3C)cc12 [Example 111, trans-4-(4-{3-[(1S)-1-(2-Chloro-3-fluoro-6-methoxyphenyl)(2,2,2-^2H3)ethyl]-1H-pyrrolo[2,3-b]pyridin-5-yl}-5-methyl-1H-pyrazol-1-yl)cyclohexanol]"
200 to 1000,50 to 200,"COc1ccc(F)c(Cl)c1[C@@H](C)c1c[nH]c2ncc(-c3cnn(CC(C)(C)O)c3C)cc12 [Example 8, 1-(4-{3-[(1S)-1-(2-Chloro-3-fluoro-6-methoxyphenyl)ethyl]-1H-pyrrolo[2,3-b]pyridin-5-yl}-5-methyl-1H-pyrazol-1-yl)-2-methylpropan-2-ol]"
200 to 1000,50 to 200,"CCc1nn(CC(C)(C)O)cc1-c1cnc2[nH]cc([C@H](C)c3c(OC(F)F)ccc(F)c3Cl)c2c1 [Example 73, 1-[4-(3-{(1S)-1-[2-Chloro-6-(difluoromethoxy)-3-fluorophenyl]ethyl}-1H-pyrrolo[2,3-b]pyridin-5-yl)-3-ethyl-1H-pyrazol-1-yl]-2-methylpropan-2-ol]"
≤ 200,≤ 50,"Cc1c(-c2cnc3[nH]cc([C@H](C)c4c(OC(F)F)ccc(F)c4Cl)c3c2)cnn1C[C@H](O)CO [Example 70, (2S)-3-[4-(3-{(1S)-1-[2-Chloro-6-(difluoromethoxy)-3-fluorophenyl]ethyl}-1H-pyrrolo[2,3-b]pyridin-5-yl)-5-methyl-1H-pyrazol-1-yl]propane-1,2-diol]"
≤ 200,≤ 50,"Cc1nn(C[C@H](O)CO)cc1-c1cnc2[nH]cc([C@H](C)c3c(OC(F)F)ccc(F)c3Cl)c2c1 [Example 71, (2S)-3-[4-(3-{(1S)-1-[2-Chloro-6-(difluoromethoxy)-3-fluorophenyl]ethyl}-1H-pyrrolo[2,3-b]pyridin-5-yl)-3-methyl-1H-pyrazol-1-yl]propane-1,2-diol]"
≤ 200,≤ 50,"COc1ccc(F)c(Cl)c1[C@@H](C)c1c[nH]c2ncc(-c3cn([C@@H]4C[C@@H](O)[C@@H](O)C4)nc3C)cc12 [Example 32, (1R,2S,4S)-4-(4-{3-[(1S)-1-(2-Chloro-3-fluoro-6-methoxyphenyl)ethyl]-1H-pyrrolo[2,3-b]pyridin-5-yl}-3-methyl-1H-pyrazol-1-yl)cyclopentane-1,2-diol]"
≤ 200,≤ 50,"C[C@H](c1c(OC(F)F)ccc(F)c1Cl)c1c[nH]c2ncc(-c3cnc([C@H]4CC[C@H](O)CC4)n3C)cc12 [Example 126, trans-4-[5-(3-{(1S)-1-[2-Chloro-6-(difluoromethoxy)-3-fluorophenyl]ethyl}-1H-pyrrolo[2,3-b]pyridin-5-yl)-1-methyl-1H-imidazol-2-yl]cyclohexanol]"
≤ 200,≤ 50,"Cc1c(-c2cnc3[nH]cc([C@H](C)c4c(OC(F)F)ccc(F)c4Cl)c3c2)cnn1[C@H]1CC[C@H](C(N)=O)CC1 [Example 76, trans-4-[4-(3-{(1S)-1-[2-Chloro-6-(difluoromethoxy)-3-fluorophenyl]ethyl}-1H-pyrrolo[2,3-b]pyridin-5-yl)-5-methyl-1H-pyrazol-1-yl]cyclohexanecarboxamide]"
≤ 200,≤ 50,"COc1ccc(F)c(Cl)c1[C@@H](C)c1c[nH]c2ncc(-c3cn([C@H]4CC[C@H](C(N)=O)CC4)nc3C)cc12 [Example 19, trans-4-(4-{3-[(1S)-1-(2-Chloro-3-fluoro-6-methoxyphenyl)ethyl]-1H-pyrrolo[2,3-b]pyridin-5-yl}-3-methyl-1H-pyrazol-1-yl)cyclohexanecarboxamide]"
